Holding throughout (type): biochemical
The target of assay [1] is T1, mouse 11-beta HSD-1 (Mus musculus, UniProt P50172).
T1 construct: or as microsome fractions from mice liver (2.5 μg); tissue TEBU; host or cells: mouse liver microsome fractions
Description: 11beta-HSD1 enzyme assay, mice liver microsome fractions, HTRF cortisol detection. To be noted: for IC50: read-out: Inhibition of mouse 11-beta HSD-1 IC50. The method, then: (§1) Human recombinant 11beta-hydroxysteroid dehydrogenase type 1 (11beta-HSD1) enzyme and type 2 (11beta-HSD2) enzymes were expressed expressed in E. coli. Mice liver microsome fractions were purchased from TEBU.
(§2) The 11beta-HSD1 enzyme assay was carried out in 96 well microliter plates in a total volume of 100 μl containing 30 mM Hepes buffer, pH 7.4 with 1 mM EDTA, substrate mixture cortisone/NADPH (200 nM/200 μM), G-6-P (1 mM) and inhibitors in serial dilutions. Reactions were initiated by addition of 10 μl 11beta-HSD1 (3 μg) from E. coli, or as microsome fractions from mice liver (2.5 μg). Following mixing, the plates were shaken for 150 minutes at 37° C. The reactions were terminated with 10 μl Acid-18beta glycyrrhetinic stop solution. Determinations of cortisol levels in 11 beta-HSD1 preparations were monitored by HTRF (HTRF cortisol assay from C is bio international).
(§3) Activity is expressed in % of control or concentration to inhibit 50% of the enzyme activity (IC50).
On the technique in general: Liver microsomes are a subcellular fraction often used to study metabolism.

In assay [2] the target is T2, human 11-beta HSD-2 (Homo sapiens, UniProt P80365).
T2 construct: made in house; host or cells: E. coli
T2 sequence (P80365 1-405): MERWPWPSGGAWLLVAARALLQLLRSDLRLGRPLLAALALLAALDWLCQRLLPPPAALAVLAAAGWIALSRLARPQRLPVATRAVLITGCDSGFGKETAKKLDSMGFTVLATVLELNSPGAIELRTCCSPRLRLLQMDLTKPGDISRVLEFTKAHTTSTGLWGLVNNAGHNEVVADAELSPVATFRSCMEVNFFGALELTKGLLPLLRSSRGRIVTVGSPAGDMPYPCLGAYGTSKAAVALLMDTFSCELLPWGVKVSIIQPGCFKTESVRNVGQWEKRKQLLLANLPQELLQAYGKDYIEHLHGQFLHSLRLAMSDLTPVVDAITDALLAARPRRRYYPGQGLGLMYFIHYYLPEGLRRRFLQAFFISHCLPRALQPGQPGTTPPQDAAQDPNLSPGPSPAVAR
In words: 11beta-HSD2 enzyme assay, human recombinant enzyme (cortisol, NAD, carbenoxolone stop). To be noted: for IC50: read-out: Inhibition of human 11-beta HSD-2 IC50; for Selectivity Ratio human HSD2/HSD1: ratio of IC50 human HSD-2 to human HSD-1. The method, then:
[Worded in the source for another target; used here, by the source, with some conditions changed.] as §1, §2, §3

Assay [3] addresses T3, human 11-beta HSD-1 (Homo sapiens, UniProt P28845).
T3 construct: made in house; host or cells: E. coli
In words: 11beta-HSD1 enzyme assay, human recombinant enzyme from E. coli, HTRF cortisol detection. To be noted: cortisone/NADPH 200 nM/200 μM, 150 min at 37° C., read-out: Inhibition of human 11-beta HSD-1 IC50. The method, then:
as §1, §2, §3

T1 sequence (P50172 whole entry): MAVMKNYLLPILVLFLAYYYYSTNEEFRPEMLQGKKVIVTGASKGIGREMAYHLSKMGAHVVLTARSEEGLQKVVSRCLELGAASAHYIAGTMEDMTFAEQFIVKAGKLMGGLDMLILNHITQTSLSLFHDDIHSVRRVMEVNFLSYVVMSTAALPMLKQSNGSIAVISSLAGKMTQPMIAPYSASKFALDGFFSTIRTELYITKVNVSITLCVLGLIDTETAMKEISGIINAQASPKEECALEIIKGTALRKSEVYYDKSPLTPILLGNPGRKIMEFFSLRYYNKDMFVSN
T3 sequence (P28845 whole entry): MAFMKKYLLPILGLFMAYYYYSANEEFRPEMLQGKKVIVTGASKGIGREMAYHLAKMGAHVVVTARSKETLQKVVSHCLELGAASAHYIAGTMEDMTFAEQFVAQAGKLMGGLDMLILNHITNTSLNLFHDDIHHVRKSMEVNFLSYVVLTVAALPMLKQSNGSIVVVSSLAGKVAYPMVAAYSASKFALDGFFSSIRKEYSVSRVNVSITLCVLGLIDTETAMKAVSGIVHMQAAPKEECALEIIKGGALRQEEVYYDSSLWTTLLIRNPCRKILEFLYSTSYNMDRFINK

In the case of `O=C(CN1CCCN(S(=O)(=O)c2ccccc2Cl)CC1)N1CCCC2CCCCC21` (centres unmarked) [Ex 2, 2-[4-(2-Chloro-benzenesulfonyl)-[1,4]diazepan-1-yl]-1-(octahydro-quinolin-1-yl)-ethanone], the IC50 in assay [1] was found to be 250 nM. Besides, the “Inhibition of human 11-beta HSD-2, activity in % of control” value in assay [2] (at 10 μM, human recombinant enzyme) is 81% of Ctrl.
With `O=C(CN1CCCN(S(=O)(=O)c2ccccc2F)CC1)N1CCCC2CCCCC21` (centres unmarked) [Ex 2-1, 2-[4-(2-Fluoro-benzenesulfonyl)-[1,4]diazepan-1-yl]-1-(octahydro-quinolin-1-yl)-ethanone], the half-maximal inhibitory concentration (IC50) was determined as 27 nM in assay [3] and 3000 nM in assay [2] (human recombinant enzyme). Moreover, the “Inhibition of mouse 11-beta HSD-1, activity in % of control” value in assay [1] (at 1 μM) was 53% of Ctrl. For the same molecule, the “Selectivity Ratio human HSD2/HSD1” value in assay [2] turned out to be 111.
Regarding `O=C(CN1CCCN(S(=O)(=O)c2c(F)cccc2F)CC1)N1CCCC2CCCCC21` (centres unmarked) [Ex 2-2, 2-[4-(2,6-Difluoro-benzenesulfonyl)-[1,4]diazepan-1-yl]-1-(octahydro-quinolin-1-yl)-ethanone], the half-inhibitory concentration (IC50) in assay [3] is 17 nM.
With `O=C(CN1CCCN(S(=O)(=O)c2ccccc2F)CC1)N(C1CCCCC1)C1CC1` [Ex 3, N-Cyclohexyl-N-cyclopropyl-2-[4-(2-fluoro-benzenesulfonyl)-[1,4]diazepan-1-yl]-acetamide], the IC50 stood at 76 nM in assay [3], 230 nM in assay [1] and 7000 nM in assay [2] (human recombinant enzyme). In addition, the “Selectivity Ratio human HSD2/HSD1” value in assay [2] was determined as 92.
In the case of `CN(C(=O)CN1CCCN(S(=O)(=O)c2ccccc2F)CC1)C1CCCCC1` [Ex 3-3, N-Cyclohexyl-2-[4-(2-fluoro-benzenesulfonyl)-[1,4]diazepan-1-yl]-N-methyl-acetamide], the IC50 in assay [3] is 430 nM.
Take `O=C(CN1CCCN(S(=O)(=O)c2ccccc2Cl)CC1)N1CCCCC1` [Ex 3-6, 2-[4-(2-Chloro-benzenesulfonyl)-[1,4]diazepan-1-yl]-1-piperidin-1-yl-ethanone]: the half-maximal inhibitory concentration (IC50) in assay [3] came out at 420 nM.
The same measure, in the same setting: as for `O=C(CN1CCCN(S(=O)(=O)c2ccccc2F)CC1)N1CCC2(C=Cc3ccccc32)CC1` [Ex 3-10, 2-[4-(2-fluoro-benzenesulfonyl)-[1,4]diazepan-1-yl]-1-spiro[1H-inden-1,4′piperidin-1-yl)-ethanone], the figure is 122 nM.

One may read the IC50 as the concentration at which inhibition is half-maximal.

(Values after US8586577B2, “Diazepane acetamide derivatives as selective 11B-HSD1 inhibitors” (Merck Patent GmbH, priority 2006, dated 2013).)
